Measured values from patent US9504676B2, “Molecules inhibiting a metabolic pathway involving the Syk protein tyrosine kinase and method for identifying said molecules” (CENTRE NATIONAL DE LA RECHERCHE SCIENTIFIQUE, priority 2008, dated 2016).
≈ marks a conversion by molar mass, not a printed value.

Key:
[1] = biological target: T1, murine Syk tyrosine kinase protein (GST:Syk 6-242) (Mus musculus, UniProt P48025); assay: ADA method: displacement of the binding of scFv G4G11 with Syk (ELISA); settings: small molecules at 10 μM, scFv G4G11 100 nM; read-out: In vit. inhib.: mean inhibition % of the binding of scFv G4G11 with Syk in the ADA method
T1 construct: made in house
Source text: The term “percentage of inhibition” of the binding of an antibody or antibody fragment with Syk protein, particularly refers to the ratio […], where A consists of the intensity of a signal proportional to the quantity of an antibody or antibody fragment bound with Syk protein in the absence of a molecule according to the invention and B the intensity of the same signal in the presence of a molecule according to the invention under the same conditions. […] This test may be performed for example according to the protocol described in example 3-2) hereinafter.
The inventors developed the ADA (Antigen Displacement Assay) method to identify small molecules capable of displacing the association with scFv G4G11 with Syk. […] To understand the mode of action of C-13, the inventors firstly identified the binding site of G4G11 using the SPOT method^16. An epitope located on the N-terminal SH2 domain of Syk, comprising amino acids 65-74 and 100% preserved in mouse, rat and human sequences, was identified.
The ADA method was then applied to each of these […] molecules to measure the ability thereof to inhibit the binding of scFv G4G11 with Syk.
(§1) • 1) Chemical products and antibodies. A chemical bank of 3000 molecules (a varied subset) was acquired from ChemBridge, Inc. (San Diego, Calif.). Stocks of solutions of small molecules were prepared at a rate of 10 mM in DMSO (dimethylsulphoxide), except for C-13 (methyl 2-{5-[(3-benzyl-4-oxo-2-thioxo-1,3-thiazolidin-5-ylidene)methyl]-2-furyl}benzoate, ChemBridge ID No. 6197026) prepared in DMF (dimethylformamide). Unless specified otherwise, all the reagents were supplied by Sigma. Dinitrophenyl (DNP) hapten was acquired from Calbiochem. Sepharose GammaBind G and all the secondary antibodies were supplied by GE Health Amersham Biosciences. The anti-Syk, anti-Lyn, anti-Btk, anti-PLC-γ1, anti-PLC-γ2, anti-LAT, anti-SLP-76, anti-p38, anti-JNK, anti-Vav, anti-Akt1 and 9E10 antibodies conjugated with HRP were acquired from Santa Cruz Biotechnology. The anti-phospho-p44/42 MAP Kinase, anti-p44/42 MAP Kinase, anti-phospho-p38, anti-phospho-JNK, anti-phospho-Akt1 antibodies were acquired from Cell Signaling. The anti-phospho-LAT and anti-phospho-PLC-γ1 antibodies were supplied by Biosource and the anti-phospho-SLP-76 antibodies by BD Pharmingen. The 4G10 anti-phosphotyrosine monoclonal antibody was acquired from Upstate Biotechnology. • 2) ADA method: ELISA type high-speed molecule screening test, based on antibody displacement (WO 2005106481). The recombinant fusion protein GST:Syk 6-242^8 comprising the residues 6 to 242 of murine Syk tyrosine kinase protein illustrated in FIG. 8B (SEQ ID No. 4) was immobilised on an ELISA plate at a final concentration of 10 μg ml^−1. For the screening of the chemical molecule bank, the small molecules, diluted in PBS at a final concentration of 10 μM were added to the wells for one hour at ambient temperature, before adding the fragment scFv G4G11 at a final concentration of 100 nM for an additional hour. The binding of G4G11 with Syk was assessed by adding the 9E10 monoclonal antibody conjugated with HRP detecting the amino acid sequence EQKLISEEDLN of human c-myc protein located at the C-terminal end of the scFv fragment. To generate Syk mutants, targeted mutagenesis was used on GST:Syk 6-242 protein and the binding of G4G11 with the mutants was assessed in the presence of 5 μM of C-13. • 3) Cells, culture conditions and functional tests. Anti-DNP 2682-I mouse monoclonal antibody was used as the culture supernatant of hybridomas containing 1 μg/ml of IgE. Femoral bone marrow cells were sampled and cultured in Opti-MEM medium (Gibco) supplemented with 10% foetal calf serum and 4% X63 transfectant supernatant secreting murine IL-3. RBL-2H3 (ATCC) leukaemic rat basophil cells were maintained in a single-layer culture in RPMI 1640 medium supplemented with 10% foetal calf serum (Gibco). […]

RBL-2H3 cells = assay: cells; type: cell-based, rat; settings: Rattus norvegicus; RBL-2H3 cells; read-out: Degran. IC50: concentration inhibiting mast cell degranulation by 50%
Description: These 87 molecules were also tested in vitro to assess the ability thereof to inhibit RBL-2H3 cell degranulation (see table 1).
as §1, with “(Gibco). Measurements of β-hexosaminidase released by the RBL-2H3 cells were performed as described previously^7, except that, after 12-16 hours of incubation with anti-DNP IgE (0.5 μg/ml), the cells were incubated for 90 min at 37° C. in RPMI medium supplemented with the specified concentrations of C-13 or DMF (0.25%). The cells were stimulated for 45 min with DNP-BSA (50 ng ml^−1) or ionomycin (1.5 μM). The BMMC cells were incubated for one hour at 37° C. with anti-DNP IgE (100 ng/ml). They were then incubated with C-13 (3 μM) or DMF (0.3%) for 3 hours at 37° C., and stimulated with varied concentrations of DNP-BSA. The level of β-hexosaminidase released was measured 10 min later and the TNF-α titration was performed by means of a cytotoxicity test on L929 cells as described previously^10, 3 hours after stimulation. The results illustrated in FIG. 3 are representative of three independent experiments. • 4) Immunoprecipitations, in vitro kinase assays and immunodetection.” for “(Gibco).”

SMILES	inhibition at 10 µM [1] [%]	IC50 (RBL-2H3 cells) [µg/mL]
COc1cc(NS(=O)(=O)c2ccc(NC(C)=O)cc2)c(OC)cc1NC(=O)c1ccccc1 [Molecule 21, N-[4-({[4-(acetylamino)phenyl]sulphonyl}amino)-2,5-dimethoxyphenyl] benzamide]	58	> 10
COC(=O)c1ccc(NC(=O)CN(c2cccc(OC)c2)S(=O)(=O)c2ccccc2)cc1 [Molecule 81]	20	> 10
O=C(O)CCC(=O)N(Cc1ccccc1)Cc1cn(-c2ccccc2)nc1-c1cccs1 [Molecule 23, 4-(benzyl{[1-phenyl-3-(2-thienyl)-1H-pyrazol-4-yl]methyl}amino)-4-oxo butanoic acid]	57	> 10
O=C(C1=C(O)C(=O)N(CCCN2CCOCC2)C1c1ccncc1)c1ccc2c(c1)OCCO2 (stereo not shown) [Molecule 83, 4-(2,3-dihydro-1,4-benzodioxin-6-ylcarbonyl)-3-hydroxy-1-[3-(4-morpholinyl)propyl]-5-(4-pyridinyl)-1,5-dihydro-2H-pyrrol-2-one]	19	~10 (≈ 21.5 µM)
COc1cccc(C2C(C(=O)c3ccc(C)o3)=C(O)C(=O)N2CCN2CCOCC2)c1 (stereo not shown) [Molecule 53, 3-hydroxy-5-(3-methoxyphenyl)-4-(5-methyl-2-furoyl)-1-[2-(4-morpholinyl)ethyl]-1,5-dihydro-2H-pyrrol-2-one]	45.5	> 10
COc1ccc(OC)c(C2C(C(=O)c3ccccc3)=C(O)C(=O)N2CCCn2ccnc2)c1 (stereo not shown) [Molecule 5, 4-benzoyl-5-(2,5-dimethoxyphenyl)-3-hydroxy-1-[3-(1H-imidazol-1-yl)propyl]-1,5-dihydro-2H-pyrrol-2-one]	77.5	> 10

Other lines, results leading:

inhibition at 10 µM [1] [%]	IC50 (RBL-2H3 cells) [µg/mL]	SMILES
24.5	> 10	CCOC(=O)C1CCN(C(=O)c2ccc(CN(c3ccc(C)c(C)c3)S(C)(=O)=O)cc2)CC1 [Molecule 80, ethyl 1-(4-{[(3,4-dimethylphenyl) (methyl sulphonyl)amino]methyl}benzoyl)-4-piperidine carboxylate]
42	~10 (≈ 20.2 µM)	COc1cccc(C2C(C(=O)c3cc(C)ccc3C)=C(O)C(=O)N2CCCN2CCOCC2)c1OC (stereo not shown) [Molecule 56, 5-(2,3-dimethoxyphenyl)-4-(2,5-dimethylbenzoyl)-3-hydroxy-1-[3-(4-morpholinyl)propyl]-1,5-dihydro-2H-pyrrol-2-one]
48.5	> 10	CC(C)c1ccc(C2C(C(=O)c3ccc(F)cc3)=C(O)C(=O)N2CCN2CCOCC2)cc1 (stereo not shown) [Molecule 45, 4-(4-fluorobenzoyl)-3-hydroxy-5-(4-isopropylphenyl)-1-[2-(4-morpholinyl)ethyl]-1,5-dihydro-2H-pyrrol-2-one]
28	~10 (≈ 22.5 µM)	COc1ccc(OCC(=O)NCc2cc(-c3nn(C)c(=O)c4ccccc34)ccc2C)cc1 [Molecule 72, 2-(4-methoxyphenoxy)-N-[2-methyl-5-(3-methyl-4-oxo-3,4-dihydro-1-phthalazinyl)benzyl]acetamide]
18	~10 (≈ 18.5 µM)	COc1cccc2cc(C(=O)C3=C(O)C(=O)N(CCN4CCOCC4)C3c3cccc(Br)c3)oc12 (stereo not shown) [Molecule 85, 5-(3-bromophenyl)-3-hydroxy-4-[(7-methoxy-1-benzofuran-2-yl)carbonyl]-1-[2-(4-morpholinyl)ethyl]-1,5-dihydro-2H-pyrrol-2-one]
11	~5 (≈ 10.3 µM)	Cc1ccc(-c2nnc(N3CCN(C(=O)CSc4nc(C)cc(C)n4)CC3)c3ccccc23)cc1 [Molecule 87, 1-(4-{[(4,6-dimethyl-2-pyrimidinyl)thio]acetyl}-1-piperazinyl)-4-(4-methylphenyl) phthalazine]
50	> 10	CCOC(=O)c1sc(N2C(=O)C(O)=C(C(=O)c3ccccc3)C2c2ccc(OC)cc2)nc1C (stereo not shown) [Molecule 37, ethyl 2-[3-benzoyl-4-hydroxy-2-(4-methoxyphenyl)-5-oxo-2,5-dihydro-1H-pyrrol-1-yl]-4-methyl-1,3-thiazole-5-carboxylate]
47	> 10	Cc1ccc(S(=O)(=O)N(CC(=O)N2CCN(Cc3ccccc3)CC2)c2ccc(C)c(C)c2)cc1 [Molecule 48, N-[2-(4-benzyl-1-piperazinyl)-2-oxoethyl]-N-(3,4-dimethylphenyl)-4-methylbenzenesulphonamide]
